Our source for the IC50 values is patent publication US20240246979A1, “cGAS INHIBITORS” (Eli Lilly and Company, priority 2022, published 2024).

SMILES strings stand for the structures. pIC50: −log10 of the molar value.

Test [1] deals with T1, cGAS (Homo sapiens, UniProt Q8N884). The test can be described thus: Cellular assay to measure cGAS activity (IFNb AlphaLISA in THP1 cells stimulated by RDG-Adenovirus-GFP). Format: cell-based. On the set-up: host or cells: THP1 cells differentiated with PMA and stimulated with RDG-Adenovirus-GFP. The settings on record: PMA-differentiated THP1 cells, RDG-Adenovirus-GFP at 1000 MOI; inhibition of IFNb production as marker for cGAS activity. As for the experimental part: Cellular assay to measure cGAS activity: Use THP1 cell line from ATCC to determine inhibition of cGAS activity by test compounds in human cells. Plate cells on 96-well plates at 0.2×10^6/well and differentiate with phorbol myristate acetate (PMA) at 37° C./5% CO2. After 24 hours, replace PMA containing media with media lacking PMA and further incubate overnight. Stimulate cells were then by RDG-Adenovirus-GFP (Vector Biolabs #1768) at 1000 MOI for 4 hours prior to the addition of test compounds. After overnight incubation, transfer 10 μL of the media from each well to a new plate for IFNb analysis as a marker for cGAS activity. Measure quantification of IFNb with an IFNb AlphaLISA Detection kit (Perkin Elmer AL3133F) by mixing the acceptor beads with the cell supernatant followed by the addition of the biotinylated antibody and donor beads. Measure the relative fluorescence signal produced from the interaction of the donor and acceptor beads by a PHERAStar AlphaLISA protocol and evaluate the inhibitory effect of a compound by plotting specific inhibition of IFNb production against log concentration of the test compound. Calculate IC50 values using a 4-parameter non-linear logistic equation (y=(S0+((SInf−S0)/(1+((qAC50/x)^nHill))))).
In general terms: In Alpha technology, singlet oxygen from a donor bead excites a nearby acceptor bead.

Test [2] has as its target T1, cGAS. The test can be described thus: In vitro inhibition assay of cGAS activity (cGAMP production, RapidFire mass spectrometry). It counts as biochemical. On the set-up: Insert cDNA encoding full-length of human cGAS; His6; made in house; host or cells: E. coli BL21(DE3). The following applies: 10 nM recombinant human cGAS, 60 nM 75-bp dsDNA, 50 μM ATP, 50 μM GTP, 3 hrs. The protocol: Expression and Purification of Recombinant cGAS Protein: Insert cDNA encoding full-length of human cGAS into a modified bacterial expression vector containing an in-frame His6-tag. Induce the E. coli strain BL21(DE3) harboring the plasmid with 1 mM IPTG (Isopropyl β-D-1-thiogalactopyranoside) at 18° C. overnight. Purify the His6-tagged cGAS protein over HISpur Ni-NTA resin in the presence of benzonase and RNase followed by Superdex 200 size exclusion chromatography with storage buffer (50 mM Tris-HCl pH 7.5, 300 mM NaCl, 1 mM DTT, 10% glycerol).
In vitro inhibition assay of cGAS activity: Add a 5 μL mixture containing 10 mM Tris-Cl pH 7.5, 50 mM NaCl, 5 mM MgCl2, 1 mM DTT, 0.01% Triton X-100, 60 nM 75-bp dsDNA, 50 μM ATP, 50 μM GTP, 10 nM of recombinant human cGAS, and serial dilutions of a test compound in DMSO to a 384-well plate and incubate at ambient temperature for 3 hrs. Quench the reaction by the addition of 100 μL of stop solution containing 0.1% formic acid and 0.1 μM internal standard (3′3′-difluoro cGAMP). Measure the amount of cGAMP produced by RapidFire 365 mass spectrometry and evaluate inhibitory effect of a compound by plotting percent specific inhibition of cGAMP production against log concentration of the test compound. Calculate IC50 values using a 4-parameter non-linear logistic equation (y=(S0+((Sinf−S0)/(1+((qAC50/x)^nHill))))).

T1 sequence (Q8N884 whole entry): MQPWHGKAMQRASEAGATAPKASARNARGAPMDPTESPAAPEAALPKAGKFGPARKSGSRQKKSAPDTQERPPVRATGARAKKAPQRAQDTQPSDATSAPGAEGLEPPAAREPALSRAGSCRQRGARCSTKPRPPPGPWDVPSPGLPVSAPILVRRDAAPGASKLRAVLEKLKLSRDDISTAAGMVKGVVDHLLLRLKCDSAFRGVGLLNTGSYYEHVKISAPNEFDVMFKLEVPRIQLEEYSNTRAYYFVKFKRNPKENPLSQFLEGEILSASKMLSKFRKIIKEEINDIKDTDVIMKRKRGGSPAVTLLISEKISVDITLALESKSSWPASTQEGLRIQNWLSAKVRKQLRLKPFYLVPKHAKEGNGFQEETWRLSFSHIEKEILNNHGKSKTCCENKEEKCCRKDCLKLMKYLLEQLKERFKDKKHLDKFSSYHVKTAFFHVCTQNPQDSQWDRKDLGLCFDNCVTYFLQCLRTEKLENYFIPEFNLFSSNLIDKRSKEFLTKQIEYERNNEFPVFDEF

For orientation: pIC50 means the IC50 on a negative log10 scale, so that one unit is a factor of ten. In the case of `COCC[C@@H]1CNC(=O)[C@@H](C)c2c1[nH]c1c(Cl)c(Cl)cc(NCCO)c21` (racemic) [Example 169, trans-7,8-Dichloro-10-((2-hydroxyethyl)amino)-5-(2-methoxyethyl)-1-methyl-3,4,5,6-tetrahydroazepino[4,5-b]indol-2(1H)-one], the results for the negative logarithm of the IC50 (pIC50) at cGAS [1] and at cGAS [2] were 5.95 and 7.58, respectively.

As to `COCC(=O)Nc1cc(Cl)c(Cl)c2[nH]c3c(c12)[C@@H](C)C(=O)NCC3` (single isomer, unassigned) [Example 41], the pIC50 is < 5.00 at cGAS [1] and 5.14 on cGAS [2].

Turning to `CC(O)CC1CNC(=O)Cc2c1[nH]c1c(Cl)c(Cl)cc(CC#N)c21` (centres unmarked) [Example 120, 2-(7,8-Dichloro-5-(2-hydroxypropyl)-2-oxo-1,2,3,4,5,6-hexahydroazepino[4,5-b]indol-10-yl)acetonitrile], the negative logarithm of the IC50 (pIC50) is 6.15 at cGAS [1] and 7.92 on cGAS [2].

Regarding `Cn1ncc(-c2cc(Cl)c(Cl)c3[nH]c4c(c23)CC(=O)NCC4CCNCC(F)(F)F)n1` (centres unmarked) [Example 112, 7,8-Dichloro-10-(2-methyl-2H-1,2,3-triazol-4-yl)-5-(2-((2,2,2-trifluoroethyl)amino)ethyl)-3,4,5,6-tetrahydroazepino[4,5-b]indol-2(1H)-one], the figures for the pIC50 on cGAS [1] and on cGAS [2] were 5.59 and 7.29, respectively.

Take `C[C@H](O)COc1cc(Cl)c(Cl)c2[nH]c3c(c12)[C@H](C)C(=O)NCC3` (single isomer, unassigned) [Example 85]: the negative-log IC50 (pIC50) at cGAS [1] was 5.14; on cGAS [2] it was 5.56.

As for `C[C@H]1C(=O)NCCc2[nH]c3c(Cl)c(Cl)cc(CC#N)c3c21` (single isomer, unassigned) [Example 89], the pIC50 against cGAS [1] was 5.95; on cGAS [2], 7.70.

On to `C[C@@H]1C(=O)NCCc2[nH]c3c(Cl)c(Cl)cc(OCC(F)(F)CO)c3c21` (single isomer, unassigned) [Example 73], for which the negative-log IC50 (pIC50) against cGAS [1] was 6.12; at cGAS [2], 7.95.

For the molecule `COCCOc1cc(Cl)c(Cl)c2[nH]c3c(c12)[C@H](C)C(=O)NCC3` (single isomer, unassigned) [Example 81], the pIC50 against cGAS [1] is 5.15; on cGAS [2] it was 5.92.

As for `CCOc1cc(Cl)c(Cl)c2[nH]c3c(c12)[C@H](C)C(=O)NCC3` (single isomer, unassigned) [Example 15A], the figures for the negative-log IC50 (pIC50) at cGAS [1] and at cGAS [2] were 6.10 and 7.65, respectively.

As for `C[C@@H]1C(=O)NCCc2[nH]c3c(Cl)c(Cl)cc(N[C@H]4CCOC4)c3c21` (single isomer, unassigned) [Example 63], the pIC50 was < 5.00 at cGAS [1] and 5.78 at cGAS [2].

Turning to `Cn1c2c(c3c(OCC#N)cc(Cl)c(Cl)c31)CC(=O)NC[C@H]2CCO` (single isomer, unassigned) [Example 126], the pIC50 against cGAS [1] is 6.30; at cGAS [2], 6.00.

Take `Cn1c2c(c3c(OCC#N)cc(Cl)c(Cl)c31)CC(=O)NCC2CCO` (centres unmarked) [Example 124, 2-((7,8-Dichloro-5-(2-hydroxyethyl)-6-methyl-2-oxo-1,2,3,4,5,6-hexahydroazepino[4,5-b]indol-10-yl)oxy)acetonitrile]: the negative-log IC50 (pIC50) at cGAS [1] was 6.33; on cGAS [2], 7.49.

For the molecule `C[C@H](O)C(=O)Nc1cc(Cl)c(Cl)c2[nH]c3c(c12)[C@@H](C)C(=O)NCC3(C)C` (single isomer, unassigned) [Example 181, (S)—N—((R)-7,8-Dichloro-1,5,5-trimethyl-2-oxo-1,2,3,4,5,6-hexahydroazepino[4,5-b]indol-10-yl)-2-hydroxypropanamide or (S)—N—((S)-7,8-dichloro-1,5,5-trimethyl-2-oxo-1,2,3,4,5,6-hexahydroazepino[4,5-b]indol-10-yl)-2-hydroxypropanamide], the pIC50 is < 5.00 against cGAS [1] and < 4.40 at cGAS [2].

Take `CC1C(=O)NCCc2[nH]c3c(Cl)c(Cl)cc(OC4COC4)c3c21` (centres unmarked) [Example 183, 7,8-Dichloro-1-methyl-10-(oxetan-3-yloxy)-3,4,5,6-tetrahydroazepino[4,5-b]indol-2(1H)-one]: the pIC50 is 5.73 against cGAS [1] and 7.39 at cGAS [2].

On to `C[C@@H]1C(=O)NCCc2[nH]c3c(Cl)c(Cl)cc(OCc4cocn4)c3c21` (single isomer, unassigned) [Example 179, (S)-7,8-Dichloro-1-methyl-10-(oxazol-4-ylmethoxy)-3,4,5,6-tetrahydroazepino[4,5-b]indol-2(1H)-one or (R)-7,8-dichloro-1-methyl-10-(oxazol-4-ylmethoxy)-3,4,5,6-tetrahydroazepino[4,5-b]indol-2(1H)-one], for which the pIC50 on cGAS [1] was < 5.00; at cGAS [2] it was 5.67.

Turning to `C[C@H]1CNC(=O)[C@H](C)c2c1[nH]c1c(Cl)c(Cl)cc(NC(=O)CO)c21` (racemic) [Example 158, trans-N-(7,8-dichloro-1,5-dimethyl-2-oxo-1,2,3,4,5,6-hexahydroazepino[4,5-b]indol-10-yl)-2-hydroxyacetamide], the pIC50 was 6.47 against cGAS [1] and 7.71 at cGAS [2].

Regarding `COCC[C@H]1CNC(=O)[C@H](C)c2c1[nH]c1c(Cl)c(Cl)cc(NCCO)c21` (single isomer, unassigned) [Example 172], the values for the pIC50 at cGAS [1] and on cGAS [2] were < 5.00 and 5.74, respectively.

As for `Cn1c2c(c3c(OCC#N)cc(Cl)c(Cl)c31)CC(=O)NC[C@H]2CCO` (single isomer, unassigned) [Example 125], the pIC50 at cGAS [1] was 6.57; at cGAS [2], 7.74.

With `COc1cc(Cl)c(Cl)c2[nH]c3c(c12)C(C)C(=O)NCC3` (centres unmarked) [Example 10, 7,8-Dichloro-10-methoxy-1-methyl-3,4,5,6-tetrahydroazepino[4,5-b]indol-2(1H)-one], the values for the pIC50 at cGAS [1] and on cGAS [2] were 5.56 and 6.91, respectively.

Consider `C[C@H]1C(=O)NCCc2[nH]c3c(Cl)c(Cl)cc(N[C@@H]4CCOC4)c3c21` (single isomer, unassigned) [Example 65], for which the negative-log IC50 (pIC50) at cGAS [1] was ≤ 5.00; on cGAS [2], 6.05.

Consider `Cn1ncc(-c2cc(Cl)c(Cl)c3[nH]c4c(c23)CC(=O)NCC4CC(=O)O)n1` (racemic) [Example 5, 2-(7,8-Dichloro-10-(2-methyl-2H-1,2,3-triazol-4-yl)-2-oxo-1,2,3,4,5,6-hexahydroazepino[4,5-b]indol-5-yl)acetic acid], for which the figures for the pIC50 at cGAS [1] and at cGAS [2] were < 5.00 and 8.29, respectively.

For `CN(C)C(=O)CC1CNC(=O)Cc2c1[nH]c1c(Cl)c(Cl)cc(-c3cnn(C)n3)c21` (centres unmarked) [Example 7, 2-(7,8-Dichloro-10-(2-methyl-2H-1,2,3-triazol-4-yl)-2-oxo-1,2,3,4,5,6-hexahydroazepino[4,5-b]indol-5-yl)-N,N-dimethylacetamide], the pIC50 against cGAS [1] was 6.18; at cGAS [2], 7.55.

For the molecule `Cn1ncc(-c2cc(Cl)c(Cl)c3[nH]c4c(c23)CC(=O)NCC4CCC(F)F)n1` (racemic) [Example 177, 7,8-Dichloro-5-(3,3-difluoropropyl)-10-(2-methyl-2H-1,2,3-triazol-4-yl)-3,4,5,6-tetrahydroazepino[4,5-b]indol-2(1H)-one], the pIC50 was 6.08 against cGAS [1] and 7.64 on cGAS [2].

With `N#CCc1cc(Cl)c(Cl)c2[nH]c3c(c12)CC(=O)NCC3CCO` (centres unmarked) [Example 113, 2-(7,8-Dichloro-5-(2-hydroxyethyl)-2-oxo-1,2,3,4,5,6-hexahydroazepino[4,5-b]indol-10-yl)acetonitrile], the negative-log IC50 (pIC50) is 5.76 on cGAS [1] and 7.43 on cGAS [2].

`CC1C(=O)NCCc2[nH]c3c(Cl)c(Cl)cc(OC[C@H]4CCO4)c3c21` (stereo partly drawn) [Example 180, 7,8-Dichloro-1-methyl-10-(((R)-oxetan-2-yl)methoxy)-3,4,5,6-tetrahydroazepino[4,5-b]indol-2(1H)-one]: the pIC50 on cGAS [1] is 6.10; on cGAS [2], 7.63.
